Laboratory results: article PMC9609767, “Radiosynthesis and Preclinical Evaluation of an ^18F-Labeled Triazolopyridopyrazine-Based Inhibitor for Neuroimaging of the Phosphodiesterase 2A (PDE2A)” (Pharmaceuticals, 2022)
“And” between values parts separate entries of the source, which are not always exact repeats. Equal values may be shown once. Read-outs that look alike come from different tables or passages of the source.

Columns and labels:
[1] = biological target: T1, rat PDE2A (Rattus norvegicus, UniProt Q01062); test: In vitro autoradiography with rat brain cryosections; assay type: binding; conditions: for Kd: read-out: apparent KD
T1 construct: Frozen sagittal 12 µm brain sections obtained from female SPRD and male Wistar-Han rats; from tissue; host or cells: rat brain cryosections (female SPRD and male Wistar-Han rats)
T1 sequence (Q01062 1-928): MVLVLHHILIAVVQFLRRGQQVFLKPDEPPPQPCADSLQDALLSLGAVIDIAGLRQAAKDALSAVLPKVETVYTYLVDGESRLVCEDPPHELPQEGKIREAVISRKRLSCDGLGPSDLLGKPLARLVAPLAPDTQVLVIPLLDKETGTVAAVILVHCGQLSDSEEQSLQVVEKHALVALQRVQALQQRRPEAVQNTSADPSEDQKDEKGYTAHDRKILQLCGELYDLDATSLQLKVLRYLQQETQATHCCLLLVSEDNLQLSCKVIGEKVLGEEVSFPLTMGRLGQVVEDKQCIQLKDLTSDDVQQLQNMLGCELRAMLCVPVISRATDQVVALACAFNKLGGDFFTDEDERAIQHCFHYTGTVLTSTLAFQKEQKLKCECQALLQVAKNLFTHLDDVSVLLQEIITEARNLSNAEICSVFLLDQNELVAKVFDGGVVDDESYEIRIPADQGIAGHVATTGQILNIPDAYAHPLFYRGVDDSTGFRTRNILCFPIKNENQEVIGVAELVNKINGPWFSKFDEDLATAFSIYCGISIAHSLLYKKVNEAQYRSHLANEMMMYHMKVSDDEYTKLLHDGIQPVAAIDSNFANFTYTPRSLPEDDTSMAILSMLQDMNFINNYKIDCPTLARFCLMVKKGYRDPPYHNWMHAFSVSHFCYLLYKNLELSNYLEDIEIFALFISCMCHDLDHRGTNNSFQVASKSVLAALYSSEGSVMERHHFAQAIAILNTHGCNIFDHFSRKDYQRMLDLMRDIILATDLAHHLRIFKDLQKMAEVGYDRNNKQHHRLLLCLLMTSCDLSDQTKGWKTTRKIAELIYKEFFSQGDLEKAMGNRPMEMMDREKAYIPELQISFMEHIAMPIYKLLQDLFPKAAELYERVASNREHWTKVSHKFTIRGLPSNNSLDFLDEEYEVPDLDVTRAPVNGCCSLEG
Description: Frozen sagittal 12 µm brain sections obtained from female SPRD and male Wistar-Han rats (10–12 weeks old) were thawed, dried in a stream of cold air, and pre-incubated for 15 min with incubation buffer (50 mM TRIS-HCl, pH 7.4; supplemented with 1 mM MgCl2, 1 mM CaCl2, 2 mM KCl, and 2 U/mL Adenosine deaminase) at ambient temperature. Afterwards, the buffer was decanted and the cryosections dried again in a stream of cold air before covering with the radioligand in incubation buffer (~0.1 MBq [^18F]11/mL; Am at the time of the incubation ~10 GBq/µmol) for incubation at ambient temperature for 90 min.
The incubation was terminated by pouring off the incubation solution and washing the slides twice with ice-cold buffer (50 mM TRIS-HCl, pH 7.4/4 °C) for 2 min and rinsing by dipping in ice-cold demineralised water. Immediately afterwards, the sections were dried in a stream of cold air and exposed along with appropriate radioactive standards (1 µL of serial dilutions of the radioligand in incubation buffer, pipetted on a microscopic glass slide and air dried) to an ^18F-sensitive image plate for 120 min. Finally, the imaging plate was scanned at the highest possible resolution (pixel size 12.6 µm × 12.6 µm) in a phosphor imager (HD-CR 35; Duerr NDT GmbH, Bietigheim Bissingen, Germany) and the digital image analysed with an image analysis program (Aida Image Analyzer v. 4.26; Elysia-raytest GmbH, Straubenhardt, Germany).
For the determination of the protein concentration, four dried 12 µm cryosections were scraped from the microscopic glass slides, transferred in an Eppendorf tube and solubilised with 200 µL of demineralised water. The protein concentration of this solution was determined by a commercial assay (Pierce™ BCA Protein Assay Kit, Thermo Fisher Scientific, Schwerte, Germany). The area of the cryosections was determined during the analysis of the digitized autoradiographic images, and the volume was calculated by multiplying the area with the thickness of the slices. Finally, the protein concentration of the tissue was calculated (37 mg protein/g wet weight).

[2] = Dynamic PET/MR study in SPRD rat; assay type: in vivo
Description: For the time of the experiments, one female CD-1 mouse (10 weeks; 30.5 g) and one female SPRD rat (9 weeks; 256 g) were kept in a dedicated climatic chamber with free access to water and food under a 12:12 h dark:light cycle at a constant temperature (24 °C). The animals were anesthetized (Anaesthesia Unit U-410, agntho’s, Lidingö, Sweden) with isoflurane (2.0%, 300 mL/min) delivered in a 60% oxygen/40% air mixture (Gas Blender 100 Series, MCQ instruments, Rome, Italy) and their body temperature maintained at 37 °C with a thermal bed system for the duration of the PET studies. A dynamic PET scan (PET/MR 1T, Mediso nanoScan®, Hungary) started 20 s before intravenous injection into the tail vein of [^18F]11 and was performed in mouse for 60 min (4.9 MBq in 150 μL isotonic saline; 20.5 nmol/kg; Am: 8.9 GBq/μmol, EOS) in rat for 30 min (29.7 MBq in 400 μL isotonic saline; 12 nmol/kg; Am: 11 GBq/μmol, EOS). Each PET image was corrected for random coincidences, dead time, scatter and attenuation (AC), based on a whole body (WB) MR scan. The reconstruction parameters for the list mode data were 3D-ordered subset expectation maximization (OSEM), 4 iterations, 6 subsets, energy window: 400–600 keV, coincidence mode: 1–5, ring difference: 81. Preceding the PET scan a T1 weighted WB gradient echo sequence (TR/TE: 20/6.4 ms, NEX: 1, FA: 25, FOV: 64 × 64 mm, Matrix: 128 × 128, STh: 0.5 mm) was performed for AC and anatomical orientation. PET Images were analyzed with PMOD (PMOD Technologies LLC, v. 4.1, Zurich, Switzerland). The respective brain regions were identified using the mouse brain atlas template Ma-Benveniste-Mirrione-T2 or the rat brain atlas template Schwarz-T2. The regional activity data (radioactivity concentration, kBq/mL) were normalized to the injected dose (MBq) and corrected for the animal weight (g) to provide standardized uptake values (SUV, g/mL). Finally, the results of the PETscans are expressed as mean SUV of the respective region of interest ROI.

[3] = caudate putamen, female SPRD rat
[4] = caudate putamen, male Wistar-Han rat

CCCC(O)c1ccc([18F])c(-c2nnc3c(C)nc4ccc(C5CC5)nc4n23)c1 (stereo not shown) [[^18F]11]
Kd ([1]; caudate nucleus and putamen, homologous competition, overall value (SPRD and Wistar)): ~0.2 nM and 0.24 nM
apparent Bmax ([1]; caudate nucleus and putamen, overall value (SPRD and Wistar)): ~20 pmol/mg protein and 16 pmol/mg protein
apparent Bmax [1, 3]: 14 pmol/mg protein
Kd [1, 3]: 0.38 nM
apparent Bmax [1, 4]: 18 pmol/mg protein
Kd [1, 4]: 0.1 nM
caudate putamen-to-cerebellum ratio ([1]; in vitro autoradiography, equilibrium conditions): about 2
SUV caudate putamen ([2]; 15 min p.i.): 0.51 SUV
SUV cerebellum ([2]; 15 min p.i.): 0.40 SUV
peak value of brain uptake (SUV) ([2]; whole brain, at 0.6 min): 0.97 SUV
